Test results reported in the NIST ThermoML archive (doi:10.1021/je050525c).
± gives the expanded uncertainty stated by the source.

Conditions: Liquid, Ebulliometric method (Recirculating still)

Structure (SMILES): CC [ethane]
- vapor or sublimation pressure (179.68 K): 77 ± 4 kPa
- vapor or sublimation pressure (190.14 K): 136 ± 4 kPa
- vapor or sublimation pressure (200.68 K): 223 ± 4 kPa
- vapor or sublimation pressure (210.03 K): 336 ± 4 kPa

Structure (SMILES): FC(F)(F)F [tetrafluoromethane]
- vapor or sublimation pressure (179.68 K): 679 ± 5 kPa
- vapor or sublimation pressure (190.14 K): 1058 ± 6 kPa
- vapor or sublimation pressure (200.68 K): 1575 ± 7 kPa
- vapor or sublimation pressure (210.03 K): 2163 ± 9 kPa
